Experimental data as given in ChEMBL document CHEMBL4145504, “Jatrophane diterpenoids from Euphorbia sororia as potent modulators against P-glycoprotein-based multidrug resistance” (Eur J Med Chem, 2018).

Tests used:
[1] = Cytotoxicity against human MCF7/ADR cells assessed as cell survival at 10 uM after 48 hrs by MTT assay relative to control; type: cell-based; details: MCF7/ADR cells (NCI/ADR-RES), read-out: Survival
P-gp = assay: Therapeutic index, ratio of IC50 for HEK293 cells to EC50 for inhibition of P-gp in human MCF7/ADR cells assessed as potentiation of doxorubicin-induced cytotoxicity; type: toxicity, cell-based; details: HEK293 cells (IC50) and MCF7/ADR cells (EC50)
[2] = Inhibition of P-gp in human MCF7/ADR cells assessed as potentiation of doxorubicin-induced cytotoxicity after 48 hrs by MTT assay; type: cell-based; details: NCI/ADR-RES
Homo sapiens [3] = species on record: Homo sapiens; assay: Inhibition of P-gp in human MCF7/ADR cells assessed as potentiation of doxorubicin-induced cytotoxicity at 10 uM after 48 hrs by MTT assay relative to control; type: cell-based
[4] = Cytotoxicity against human MCF7 cells assessed as cell survival at 10 uM after 48 hrs by MTT assay relative to control; type: cell-based; details: read-out: Survival
MCF7 = assay: Cytotoxicity against human MCF7 cells after 48 hrs by MTT assay; type: cell-based; details: MCF7, 48 h
HEK293 = assay: Cytotoxicity against HEK293 cells after 48 hrs by MTT assay; type: cell-based; details: Homo sapiens, HEK293, 48 h
NCI/ADR-RES = assay: Cytotoxicity against human MCF7/ADR cells after 48 hrs by MTT assay; type: cell-based
[5] = Competitive inhibition of P-gp in human MCF7/ADR cells after 150 mins in presence of doxorubicin by Lineweaver-Burk plot analysis; type: cell-based
Homo sapiens [6] = species on record: Homo sapiens; assay: Inhibition of P-gp in human MCF7/ADR cells assessed as concentration required to restore doxorubicin accumulation in cells after 150 mins by fluorescence assay relative to MCF7 cells; type: cell-based
Homo sapiens [7] = species on record: Homo sapiens; assay: Inhibition of P-gp in human MCF7/ADR cells assessed as increase in doxorubicin accumulation in cells after 150 mins by fluorescence assay; type: cell-based
[8] = Competitive inhibition of P-gp in human MCF7/ADR cells after 150 mins in presence of doxorubicin by Dixon plot analysis; type: cell-based

What does the source list for `C=C1[C@@H](OC(C)=O)[C@@H]2[C@H](OC(=O)c3ccccc3)[C@](C)(OC(=O)C(C)C)C[C@]2(OC(C)=O)C(=O)[C@H](C)/C=C/C(C)(C)[C@H](OC(C)=O)[C@H](OC(C)=O)[C@H]1OC(=O)C(C)C`?
viability at 48 h, 10 µM [1]: 91.2%; selectivity ratio (P-gp): 196; EC50 [2]: 0.196 µM; fold change (FC) (Homo sapiens [3]): 11.2; viability at 48 h, 10 µM [4]: 92.3%; IC50 (MCF7): > 100 µM; IC50 (HEK293): 38.5 µM; IC50 (NCI/ADR-RES): > 100 µM

What does the source list for `C=C1[C@H](OC(=O)C(C)C)[C@@H](OC(C)=O)[C@@H](OC(C)=O)C(C)(C)/C=C/[C@H](C)[C@H](OC(=O)c2ccccc2)[C@@]2(O)C[C@@](C)(OC(C)=O)[C@H](OC(C)=O)[C@@H]2[C@H]1OC(=O)CC`?
viability at 48 h, 10 µM [1]: 92.8%; selectivity ratio (P-gp): 378; EC50 [2]: 0.178 µM; fold change (FC) (Homo sapiens [3]): 12.5; viability at 48 h, 10 µM [4]: 93.3%; IC50 (MCF7): > 100 µM; IC50 (HEK293): 67.2 µM; IC50 (NCI/ADR-RES): > 100 µM

What does the source list for `C=C1[C@H](OC(=O)C(C)C)[C@@H](OC(C)=O)[C@@H](OC(C)=O)C(C)(C)/C=C/[C@H](C)[C@H](OC(C)=O)[C@@]2(O)C[C@@](C)(OC(C)=O)[C@H](OC(C)=O)[C@@H]2[C@H]1OC(=O)c1ccccc1`?
viability at 48 h, 10 µM [1]: > 100%; fold change (FC) (Homo sapiens [3]): 10.2; viability at 48 h, 10 µM [4]: 94.6%; IC50 (MCF7): > 100 µM; IC50 (NCI/ADR-RES): > 100 µM

Which viability at 48 h, 10 µM [1] does the source give for `COc1ccc(CCN(C)CCCC(C#N)(c2ccc(OC)c(OC)c2)C(C)C)cc1OC` (configuration not stated) here?
Its viability at 48 h, 10 µM is 90.2%.

What about the Ki [5] of the same compound?
Its Ki is 2.88 µM.

And the Activity (Homo sapiens [6])?
The Activity was 40 µM.

What about the inhibition (Homo sapiens [7]) of the same compound?
The inhibition was “Dose-dependent effect”.

And the viability at 48 h, 10 µM [4]?
The viability at 48 h, 10 µM was 83.4%.

And the IC50 (MCF7)?
Its IC50 is 48.9 µM.

What about the Ki [8] of the same compound?
The Ki was 2.92 µM.

For `CC(=O)O[C@H]1[C@@H](OC(C)=O)C(C)(C)[C@@H]2O[C@H]2[C@H](C)[C@H](OC(C)=O)[C@]2(O)[C@H]3[C@@H](OC(=O)c4ccccc4)[C@@](O)(CCC(=O)O[C@H]3[C@](C)(OC(C)=O)[C@H]2OC(C)=O)[C@@H]1OC(C)=O`, which viability at 48 h, 10 µM [1] is on record?
The viability at 48 h, 10 µM was 93%.

And the fold change (FC) (Homo sapiens [3])?
Its fold change (FC) is 0.69.

And the viability at 48 h, 10 µM [4]?
Its viability at 48 h, 10 µM is 94.9%.

And the IC50 (MCF7)?
The IC50 was > 100 µM.

And the IC50 (NCI/ADR-RES)?
Its IC50 is > 100 µM.

Which viability at 48 h, 10 µM [1] does the source give for `CC(=O)O[C@H]1[C@@H](OC(C)=O)C(C)(C)/C=C/[C@H](C)[C@H](OC(C)=O)[C@@]2(O)C[C@@](C)(OC(C)=O)[C@H](O)[C@@H]2[C@H]2OC(=O)CC[C@@]2(OC(=O)c2ccccc2)[C@@H]1OC(=O)C(C)C` here?
Its viability at 48 h, 10 µM is > 100%.

And the selectivity ratio (P-gp)?
The selectivity ratio was 346.

What about the EC50 [2] of the same compound?
Its EC50 is 0.125 µM.

What about the fold change (FC) (Homo sapiens [3]) of the same compound?
The fold change (FC) was 13.

And the viability at 48 h, 10 µM [4]?
Its viability at 48 h, 10 µM is 98.5%.

And the IC50 (MCF7)?
The IC50 was 64.8 µM.

And the IC50 (HEK293)?
Its IC50 is 43.1 µM.

What about the IC50 (NCI/ADR-RES) of the same compound?
Its IC50 is > 100 µM.

Which results are given for `C=C1[C@H](OC(=O)CC)[C@@H](OC(C)=O)[C@@H](OC(C)=O)C(C)(C)/C=C/[C@H](C)[C@H](OC(=O)c2ccccc2)[C@@]2(O)C[C@@](C)(OC(C)=O)[C@H](OC(C)=O)[C@@H]2[C@H]1OC(=O)C(C)C`?
viability at 48 h, 10 µM [1]: 92.5%; selectivity ratio (P-gp): 438; EC50 [2]: 0.136 µM; fold change (FC) (Homo sapiens [3]): 13.5; viability at 48 h, 10 µM [4]: 83.3%; IC50 (MCF7): > 100 µM; IC50 (HEK293): 59.4 µM; IC50 (NCI/ADR-RES): > 100 µM

Which viability at 48 h, 10 µM [1] does the source give for `C=C1[C@H](OC(=O)C(C)C)[C@@H](OC(C)=O)[C@@H](OC(C)=O)C(C)(C)/C=C/[C@H](C)[C@H](OC(=O)c2ccccc2)[C@@]2(O)C[C@@](C)(OC(C)=O)[C@H](OC(C)=O)[C@@H]2[C@H]1OC(=O)c1ccccc1` here?
Its viability at 48 h, 10 µM is 97.7%.

What about the selectivity ratio (P-gp) of the same compound?
Its selectivity ratio is 661.

And the EC50 [2]?
Its EC50 is 0.0929 µM.

And the fold change (FC) (Homo sapiens [3])?
Its fold change (FC) is 20.9.

And the viability at 48 h, 10 µM [4]?
The viability at 48 h, 10 µM was 93.2%.

And the IC50 (MCF7)?
Its IC50 is 53.9 µM.

And the IC50 (HEK293)?
Its IC50 is 61.4 µM.

What about the IC50 (NCI/ADR-RES) of the same compound?
Its IC50 is > 100 µM.
